From patent US7872027B2, “Low molecular weight Myc-max inhibitors” (University of Pittsburgh - Of the Commonwealth System of …, priority 2006, dated 2011) come the findings set out here.

In experiment [1] the test system is HL60 human promyelocytic leukemia cells. The experiment can be described thus: HL60 cell growth inhibition (trypan blue cell counts). In kind it is cell-based. How it is done: Note that all structures shown herein are drawn in their Z-isoform and some bonds have been standardized. IC50's here, as well as below for in FIGS. 2 and 3, were calculated based upon dose-response profiles on day 5 following the addition of each compound.
HL60 human promyelocytic leukemia cells were grown in RPMI medium supplemented with 10% fetal calf serum, 100 U/ml penicillin G, and 100 μg/ml streptomycin (all from Mediatech, Inc., Herndon, Va.). Rat fibroblast lines were grown under similar conditions in Dulbecco's modified minimal essential medium. To determine the effects of Myc-Max compounds on HL60 cell growth, logarithmically growing cells (>90% viability) were resuspended in fresh medium. Four (4) ml (a total of 16,000 cells) were then seeded into 6-well plates in the presence of the indicated amount of Myc-Max compound. In all cases, 10058-F4 was included as a reference compound. Daily cell counts were performed manually in triplicate on a hemacytometer using trypan blue exclusion. Viabilities exceeded 85% throughout the course of the experiment.
Each compound was initially tested for its ability to inhibit the growth of the HL60 human promyelocytic leukemia cell line, which expresses high levels of c-Myc as a result of gene amplification (Park S—H, et al. Methods Mol Biol 2004; 261:161-165 (2004)). […]

A further experiment concerns the target T1, c-Myc-Max(S) heterodimer (Homo sapiens, UniProt P01106).
T1 construct: human Myc residues 353-439 with a GGCD extension at the C terminus; His6 (TEV-cleavable) (cleaved yes); made in house; host or cells: E. coli BL21DE3(plysS) for c-Myc; E. coli M15(pRep4) for Max
The experiment can be described thus: electrophoretic mobility shift assay (EMSA), E-box DNA binding. Conditions: 60 nM each protein, 10 nM oligonucleotide. Format: biochemical. How it is done:
(§1) Equivalent amounts of nuclear extracts were incubated with the indicated concentrations of the compounds depicted in FIGS. 1-3. Following precipitation of the complexes with an anti-Max antibody, the total amount of associated c-Myc was detected by immunoblotting (top panel). As a control, the lower portion of the blot was probed with an anti-Max antibody (bottom panel). FIGS. 4B, 4C and 4D show EMSAs results. Recombinant c-Myc353-439 (which encodes the complete bHLH-ZIP dimerization domain) and full-length Max(S) were purified to homogeneity from E. coli and used at a final concentration of 60 nM in the presence of the indicated concentration of compound.
Electrophoretic mobility shift Assays (EMSAs). Experiments were performed on 8% polyacrylamide:bis-acrylamide (80:1) gels in 0.5×TBE. […]
and was synthesized by Integrated DNA Technologies Inc (Coralville, Iowa). […] Data were analyzed with BioRad Quantity One software.
The second method used to gauge the effects of 10058-F4 and its analogs on c-Myc-Max complexes relied on the use of a simple, three component electrophoretic mobility shift assay (EMSA). […] The ability of the resultant heterodimer to bind a double-stranded target oligonucleotide containing a consensus E-box motif was then assessed by PAGE. […]

A further experiment concerns the target T2, c-Myc-Max complexes (Homo sapiens, UniProt P01106).
T2 construct: endogenous in cells; host or cells: HL60 nuclear extract
The experiment can be described thus: co-immunoprecipitation of c-Myc and Max from HL60 nuclear extracts. Format: biochemical. Conditions: 30° C. for 30 min. How it is done: as §1
Nuclei from HL60 cells were prepared essentially as described previously (17). Briefly, approximately 4×10^7 washed nuclei were resuspended in 1 ml of ice cold buffer F, which contained 150 mM NaCl; 10 mM Tris-HCl, pH 7.1; 30 mM sodium pyrophosphate; 5 μM ZnCl2; 0.1% Nonidet P-40; 0.1 mM Na3VO4; 1 mM PMSF; 2.5 U/ml each of pepstatin, leupeptin, and approtinin. All reagents were from Sigma-Aldrich (St. Louis, Mo.). […]
10058-F4 analogs interfere directly with c-Myc-Max heterodimerization and DNA binding. […] To address this, the effect of each compound on c-Myc-Max association was determined in vitro by two different methods. […] The total amount of co-precipitating c-Myc protein was then assessed by immunoblotting. […]

T2 sequence (P01106 whole entry, one chain of several): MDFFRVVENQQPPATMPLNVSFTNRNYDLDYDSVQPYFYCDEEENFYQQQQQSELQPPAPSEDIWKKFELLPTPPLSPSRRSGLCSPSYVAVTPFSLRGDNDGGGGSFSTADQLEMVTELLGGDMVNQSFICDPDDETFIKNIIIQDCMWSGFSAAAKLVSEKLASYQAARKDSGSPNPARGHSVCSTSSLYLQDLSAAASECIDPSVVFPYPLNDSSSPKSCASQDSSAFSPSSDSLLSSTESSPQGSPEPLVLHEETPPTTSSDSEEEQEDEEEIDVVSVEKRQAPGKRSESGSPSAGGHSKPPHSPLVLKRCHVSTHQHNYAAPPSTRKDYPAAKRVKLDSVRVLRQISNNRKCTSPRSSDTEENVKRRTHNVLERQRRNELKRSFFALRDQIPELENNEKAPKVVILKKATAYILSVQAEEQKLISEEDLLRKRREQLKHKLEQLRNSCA
T1 sequence (P01106 368-454, one chain of several): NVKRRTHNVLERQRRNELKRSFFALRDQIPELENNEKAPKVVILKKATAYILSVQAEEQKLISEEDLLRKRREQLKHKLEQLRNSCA

Turning to `CC(C)c1ccc(/C=C2\SC(=S)N(CN3CCCCC3)C2=O)cc1` [Compound 28RH-NCN-1], the “activity in HL60 cells compared with 10058-F4” value in experiment [1] (10058-F4 in parallel) was “activities comparable to that of 10058-F4”.

As to `CCc1ccc(C=C2SC(=S)NC2=O)cc1` [Compound 10058-F4, (Z,E)-5-(4-ethylbenzylidene)-2-thioxothiazolidin-4-one], the “inhibition of E-box DNA binding by c-Myc-Max(S)” value at c-Myc-Max(S) heterodimer is “dose-dependent, although variable, inhibition”. The IC50 in experiment [1] (Homo sapiens, HL-60, 120 h, dose-response profiles on day 5 following addition of compound, read-out: ID50, HL60 cell growth) is 51 µM. For the same compound, the “dissociation of c-Myc from Max (co-IP with anti-Max antibody)” value at c-Myc-Max complexes was “promoted the dissociation of c-Myc from Max”.
